The values below come from patent US5798247A, “Organic-chemical compound with ice-inhibitory action” (BASF Aktiengesellschaft, priority 1997, dated 1998).

In the test the target is T1, interleukin converting enzyme (ICE) (Homo sapiens, UniProt P29466).
T1 sequence (P29466 120-297 limits assumed): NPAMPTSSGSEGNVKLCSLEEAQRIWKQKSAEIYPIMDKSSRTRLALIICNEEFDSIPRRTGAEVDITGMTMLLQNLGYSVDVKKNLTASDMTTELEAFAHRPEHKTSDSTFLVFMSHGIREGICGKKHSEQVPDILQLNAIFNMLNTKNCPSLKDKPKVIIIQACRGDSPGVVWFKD
T1 sequence (P29466 317-404 limits assumed): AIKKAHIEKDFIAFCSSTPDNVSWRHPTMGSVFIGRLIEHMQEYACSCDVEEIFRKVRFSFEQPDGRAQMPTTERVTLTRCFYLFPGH
As to the kind of experiment: ICE inhibition (inhibition constant). The test is classed as biochemical. As to conditions: reversible covalent binding (thiohemiacetal linkage) to ICE.

`O=C(c1ccccc1)c1ccccn1` [2-Benzoylpyridine] gave a Ki of around 1000 nM.
